In patent publication US11464802B2, “3-substituted piperidine compounds for Cbl-b inhibition, and use thereof” (Nurix Therapeutics, Inc., priority 2019, dated 2022):
Like-named read-outs stand apart in the source and are kept apart here.

What was measured:
[1] = system: primary human total T-cells; assay: Primary human total T-cell activation: CD25 surface staining, Biological Example 2; assay type: cell-based; details: 48 hours, fold change over baseline; for fold induction at 0.3 µM: inhibitor 0.3 μM; for fold induction at 1 µM: inhibitor 1 μM; for fold induction at 3 µM: inhibitor 3 μM
[2] = system: primary human total T-cells; assay: Primary human total T-cell activation: IL-2 secretion, Biological Example 2; assay type: cell-based; details: 48 hours, fold change over baseline; for fold induction at 0.3 µM: inhibitor 0.3 μM; for fold induction at 1 µM: inhibitor 1 μM; for fold induction at 3 µM: inhibitor 3 μM
Cbl-b = Cbl-b (Homo sapiens (Human), UniProt Q13191); assay: Cbl-b displacement assay (Cbl-b inhibition assay), TR-FRET probe displacement, Biological Example 1; assay type: binding
Chain of Cbl-b (Q13191 36-427): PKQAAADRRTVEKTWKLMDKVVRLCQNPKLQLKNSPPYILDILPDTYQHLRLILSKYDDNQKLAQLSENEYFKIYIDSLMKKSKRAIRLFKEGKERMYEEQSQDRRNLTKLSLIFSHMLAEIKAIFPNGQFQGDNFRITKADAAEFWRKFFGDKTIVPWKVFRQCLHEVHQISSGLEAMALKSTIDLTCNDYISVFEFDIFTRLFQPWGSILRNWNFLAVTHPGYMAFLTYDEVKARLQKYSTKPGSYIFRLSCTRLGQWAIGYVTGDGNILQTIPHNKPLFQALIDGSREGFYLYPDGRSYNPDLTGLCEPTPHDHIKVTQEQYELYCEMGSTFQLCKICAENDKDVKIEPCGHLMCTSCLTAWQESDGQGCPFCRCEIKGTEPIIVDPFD
Procedure, shortened: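 N-terminally Avitagged, biotinylated truncated Cbl-b (0.5 nM "High" or 0.125 nM "Low", final) pre-incubated 1 h at room temperature with compound (1% DMSO) in HEPES pH 7.5 buffer. Then 150 nM BODIPY FL probe (~EC40) plus 2 nM streptavidin-terbium for 1 h; TR-FRET read at 520/620 nm.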

[3] = anti-CD3/anti-CD28 co-stimulation
[4] = anti-CD3/anti-CD28 co-stimulation, read-out: CD25 staining CD3/CD28 1 μM
[5] = anti-CD3 alone, read-out: CD25 staining CD3 1 μM
[6] = anti-CD3/anti-CD28 co-stimulation, read-out: IL-2 secretion CD3/CD28 1 μM
[7] = anti-CD3 alone, read-out: IL-2 secretion CD3 1 μM
[8] = Cbl-b concentration (High or Low) not given, read-out: IC50 values in the Cbl-b inhibition assay of Biological Example 1
[9] = 0.125 nM Cbl-b final concentration (Low), read-out: Cbl-b activity IC50 (Low)

SMILES	fold induction at 0.3 µM [1, 3]	fold induction at 1 µM [1, 4]	fold induction at 1 µM [1, 5]	fold induction at 3 µM ([1]; anti-CD3 alone)	fold induction at 0.3 µM [2, 3]	fold induction at 1 µM [2, 6]	fold induction at 1 µM [2, 7]	fold induction at 3 µM ([2]; anti-CD3 alone)	IC50 (Cbl-b; 0.5 nM Cbl-b final concentration (High), read-out: Cbl-b activity IC50 (High)) [nM]	IC50 (Cbl-b; [8]) [nM]	IC50 (Cbl-b; [9]) [nM]
C[C@@H]1C[C@H](C)CN(Cc2cc3c(c(C(F)(F)F)c2)CN(c2cccc(-c4c(-c5nncn5C)cnn4C)c2)C3=O)C1 [Compound 45, 6-((cis-3,5-dimethylpiperidin-1-yl)methyl)-2-(3-(1-methyl-4-(4-methyl-4H-1,2,4-triazol-3-yl)-1H-pyrazol-5-yl)phenyl)-4-(trifluoromethyl)isoindolin-1-one]	1.25 to 1.39	< 1.24	< 1.04	< 1.04	11 to 15	11 to 15	0.34 to 0.66	0.34 to 0.66	1 to 5	1 to 5	
C[C@H]1CCCN(Cc2cc3c(c(C(F)(F)F)c2)CN(c2cc(C4(Cc5nncn5C)COC4)cc(Cl)n2)C3=O)C1 [Compound 47, 2-(6-chloro-4-{3-[(4-methyl-1,2,4-triazol-3-yl)methyl]oxetan-3-yl}pyridin-2-yl)-6-{[(3S)-3-methylpiperidin-1-yl]methyl}-4-(trifluoromethyl)-3H-isoindol-1-one]	> 1.39	> 1.39	> 1.14	> 1.14	> 15	> 15	> 0.66	> 0.66		5.1 to 100	5.1 to 100
C[C@H]1CCCN(Cc2cc3c(c(C(F)(F)F)c2)CN(c2cc(C4(Cc5nncn5C)COC4)ccn2)C3=O)C1 [Compound 48, (S)-2-(4-(3-((4-methyl-4H-1,2,4-triazol-3-yl)methyl)oxetan-3-yl)pyridin-2-yl)-6-((3-methylpiperidin-1-yl)methyl)-4-(trifluoromethyl)isoindolin-1-one]	> 1.39	> 1.39	> 1.14	> 1.14	> 15	> 15	> 0.66	> 0.66		1 to 5	1 to 5
C[C@@H]1CN([C@@H](C)c2cc3c(c(C4CC4)n2)CN(c2cccc(C4(Cc5nncn5C)COC4)c2)C3=O)CCC1(F)F [Compound 49, 4-cyclopropyl-6-((S)-1-((R)-4,4-difluoro-3-methylpiperidin-1-yl)ethyl)-2-(3-(3-((4-methyl-4H-1,2,4-triazol-3-yl)methyl)oxetan-3-yl)phenyl)-2,3-dihydro-1H-pyrrolo[3,4-c]pyridin-1-one]	> 1.39	> 1.39	> 1.14	> 1.14	> 15	> 15	> 0.66	> 0.66			< 1
C[C@H](c1cc2c(c(C3CC3)n1)CN(c1cccc(C3(Cc4nncn4C)COC3)c1)C2=O)N1CCC(F)(F)[C@H](C)C1 [Compound 50, 4-cyclopropyl-6-((R)-1-((R)-4,4-difluoro-3-methylpiperidin-1-yl)ethyl)-2-(3-(3-((4-methyl-4H-1,2,4-triazol-3-yl)methyl)oxetan-3-yl)phenyl)-2,3-dihydro-1H-pyrrolo[3,4-c]pyridin-1-one]	> 1.39	> 1.39	> 1.14	> 1.14	> 15	> 15	> 0.66	> 0.66			< 1
C[C@H]1CCCN([C@@H](C)c2cc3c(c(C4CC4)n2)CN(c2cccc(C4(Cc5nncn5C)COC4)c2)C3=O)C1 [Compound 51, 4-cyclopropyl-2-(3-(3-((4-methyl-4H-1,2,4-triazol-3-yl)methyl)oxetan-3-yl)phenyl)-6-((S)-1-((S)-3-methylpiperidin-1-yl)ethyl)-2,3-dihydro-1H-pyrrolo[3,4-c]pyridin-1-one]	> 1.39	> 1.39	> 1.14	> 1.14	> 15	> 15	> 0.66	> 0.66			< 1
